This is an account of results in publication PMC6211260 (Journal of Enzyme Inhibition and Medicinal Chemistry, 2018).

The target in data set [1] is T1, hERG (Homo sapiens, UniProt Q12809).
T1 construct: purchased Invitrogen PV5365
Nature of the data set: hERG binding assay (hERG Fluorescence Polarization Assay). As for the experimental part:
hERG binding assay was performed using hERG Fluorescence Polarization Assay (Invitrogen: PV5365) assay kit and Synergy Neo (Biotek) and standard procedures were applied.
For orientation: Block of hERG is tested as a sign of cardiac risk.

Data set [2] addresses T2, ERK2/MAPK1 (Homo sapiens, UniProt P28482).
T2 construct: purchased Reaction Biology Corp
Nature of the data set: In vitro kinase screening (Kinase HotSpot). Type of data set: biochemical. The note with it: single dose of 10 µM. From the text: (§1) To investigate the biological target of compound, Reaction Biology Corp. Kinase HotSpotSM service was used adopting standard assay protocol.

For data set [3], the target named is T3, IKKb/IKBKB (Homo sapiens, UniProt O14920).
T3 construct: purchased Reaction Biology Corp
T3 sequence (O14920 1-756): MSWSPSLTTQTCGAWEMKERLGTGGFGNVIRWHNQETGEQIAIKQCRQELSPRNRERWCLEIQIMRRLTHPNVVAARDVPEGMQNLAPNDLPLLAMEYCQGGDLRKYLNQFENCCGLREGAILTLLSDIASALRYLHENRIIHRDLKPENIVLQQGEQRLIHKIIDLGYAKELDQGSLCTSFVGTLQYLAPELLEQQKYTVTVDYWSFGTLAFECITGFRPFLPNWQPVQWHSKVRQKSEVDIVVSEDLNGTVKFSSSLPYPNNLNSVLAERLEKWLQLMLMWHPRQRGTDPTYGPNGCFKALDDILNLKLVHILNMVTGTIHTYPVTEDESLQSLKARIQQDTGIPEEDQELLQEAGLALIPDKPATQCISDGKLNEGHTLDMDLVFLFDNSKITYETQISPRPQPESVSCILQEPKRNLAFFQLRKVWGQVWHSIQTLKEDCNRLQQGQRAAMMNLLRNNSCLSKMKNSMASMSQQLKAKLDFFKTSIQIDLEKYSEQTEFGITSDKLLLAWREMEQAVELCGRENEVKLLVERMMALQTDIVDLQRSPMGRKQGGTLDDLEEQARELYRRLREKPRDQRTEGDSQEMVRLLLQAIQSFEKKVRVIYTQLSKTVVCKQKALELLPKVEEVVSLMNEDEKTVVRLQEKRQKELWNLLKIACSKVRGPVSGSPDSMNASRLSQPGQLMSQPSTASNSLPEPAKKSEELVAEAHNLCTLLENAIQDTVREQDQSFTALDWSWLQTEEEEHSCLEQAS
Nature of the data set: In vitro kinase screening (Kinase HotSpot). Type of data set: biochemical. The settings on record: single dose of 10 µM.
Excerpt: as §1

Data set [4] concerns the target T4, FMS (Homo sapiens, UniProt P07333).
T4 construct: purchased Reaction Biology Corp
Nature of the data set: In vitro kinase screening (Kinase HotSpot). Type of data set: biochemical. The settings on record: single dose of 10 µM.
Excerpt: as §1

Data set [5] deals with T5, KDR/VEGFR2 (Homo sapiens, UniProt P35968).
T5 construct: purchased Reaction Biology Corp
T5 sequence (P35968 20-1356): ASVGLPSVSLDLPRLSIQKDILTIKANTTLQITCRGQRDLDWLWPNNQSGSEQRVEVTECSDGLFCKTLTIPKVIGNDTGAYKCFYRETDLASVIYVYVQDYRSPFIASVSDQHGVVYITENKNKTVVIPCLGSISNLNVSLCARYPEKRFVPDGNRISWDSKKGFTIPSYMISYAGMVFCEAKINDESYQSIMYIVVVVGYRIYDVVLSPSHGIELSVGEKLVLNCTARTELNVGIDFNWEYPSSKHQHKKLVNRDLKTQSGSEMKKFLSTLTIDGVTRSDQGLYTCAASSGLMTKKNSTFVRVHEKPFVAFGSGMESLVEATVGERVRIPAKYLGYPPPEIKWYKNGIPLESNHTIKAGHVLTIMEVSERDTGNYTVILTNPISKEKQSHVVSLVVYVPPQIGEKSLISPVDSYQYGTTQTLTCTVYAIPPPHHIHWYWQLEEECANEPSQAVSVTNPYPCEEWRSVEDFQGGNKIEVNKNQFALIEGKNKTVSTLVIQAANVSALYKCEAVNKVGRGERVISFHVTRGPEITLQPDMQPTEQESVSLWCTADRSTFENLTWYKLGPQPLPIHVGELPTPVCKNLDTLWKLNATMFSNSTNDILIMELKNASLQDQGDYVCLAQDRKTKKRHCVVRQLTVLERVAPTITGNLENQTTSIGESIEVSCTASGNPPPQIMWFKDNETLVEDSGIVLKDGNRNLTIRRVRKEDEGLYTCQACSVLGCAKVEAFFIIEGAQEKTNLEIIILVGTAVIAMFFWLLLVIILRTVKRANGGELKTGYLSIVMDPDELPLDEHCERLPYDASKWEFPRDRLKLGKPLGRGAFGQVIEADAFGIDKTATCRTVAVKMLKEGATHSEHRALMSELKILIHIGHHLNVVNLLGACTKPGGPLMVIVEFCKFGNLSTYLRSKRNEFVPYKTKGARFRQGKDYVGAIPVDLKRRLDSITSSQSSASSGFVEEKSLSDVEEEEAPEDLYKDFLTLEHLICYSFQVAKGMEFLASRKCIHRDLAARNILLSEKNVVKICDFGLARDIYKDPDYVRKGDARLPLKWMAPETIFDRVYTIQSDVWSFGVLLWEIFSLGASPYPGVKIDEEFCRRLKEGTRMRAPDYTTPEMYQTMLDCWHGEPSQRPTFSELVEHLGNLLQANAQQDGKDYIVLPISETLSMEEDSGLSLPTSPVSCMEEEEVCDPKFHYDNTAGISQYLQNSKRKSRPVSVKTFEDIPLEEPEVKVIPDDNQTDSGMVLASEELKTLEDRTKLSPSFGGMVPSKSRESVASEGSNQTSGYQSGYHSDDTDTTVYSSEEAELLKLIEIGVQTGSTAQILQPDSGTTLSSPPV
Nature of the data set: In vitro kinase screening (Kinase HotSpot). The note with it: single dose of 10 µM. Type of data set: biochemical.
Excerpt: as §1

Data set [6] has as its target T6, EGFR (Homo sapiens, UniProt P00533).
T6 construct: purchased Reaction Biology Corp
Nature of the data set: In vitro kinase screening (Kinase HotSpot). Type of data set: biochemical. The note with it: single dose of 10 µM.
Excerpt: as §1

Data set [7] deals with T7, P38a/MAPK14 (Homo sapiens, UniProt Q16539).
T7 construct: purchased Reaction Biology Corp
T7 sequence (Q16539 whole entry): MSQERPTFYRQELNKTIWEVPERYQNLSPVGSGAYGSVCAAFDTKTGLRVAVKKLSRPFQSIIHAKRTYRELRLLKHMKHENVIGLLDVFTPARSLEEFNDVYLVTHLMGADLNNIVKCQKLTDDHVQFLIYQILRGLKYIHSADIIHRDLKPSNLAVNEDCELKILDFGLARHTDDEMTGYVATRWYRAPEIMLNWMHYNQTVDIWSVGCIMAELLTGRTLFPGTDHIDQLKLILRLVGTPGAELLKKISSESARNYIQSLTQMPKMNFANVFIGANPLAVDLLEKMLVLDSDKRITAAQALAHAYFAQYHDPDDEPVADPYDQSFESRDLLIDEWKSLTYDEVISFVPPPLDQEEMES
Nature of the data set: In vitro kinase screening (Kinase HotSpot). Type of data set: biochemical.
Excerpt: as §1

The target of data set [8] is T8, JNK3 (Homo sapiens, UniProt P53779).
T8 construct: purchased Reaction Biology Corp
T8 sequence (P53779 whole entry): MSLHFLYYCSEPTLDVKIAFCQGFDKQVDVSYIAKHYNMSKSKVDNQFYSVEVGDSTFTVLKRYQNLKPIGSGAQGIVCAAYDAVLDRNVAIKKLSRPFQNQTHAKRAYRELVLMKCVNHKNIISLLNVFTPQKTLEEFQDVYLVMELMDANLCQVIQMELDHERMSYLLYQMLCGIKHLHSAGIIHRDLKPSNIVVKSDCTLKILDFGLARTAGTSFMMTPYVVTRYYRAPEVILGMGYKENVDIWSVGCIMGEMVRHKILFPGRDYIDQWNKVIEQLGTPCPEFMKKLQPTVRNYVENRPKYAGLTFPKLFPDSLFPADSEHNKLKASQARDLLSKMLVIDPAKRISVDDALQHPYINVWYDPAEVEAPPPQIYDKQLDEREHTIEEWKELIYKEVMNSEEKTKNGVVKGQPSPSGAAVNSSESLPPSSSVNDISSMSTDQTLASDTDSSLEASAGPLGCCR
Nature of the data set: In vitro kinase screening (Kinase HotSpot). The data set is classed as biochemical. The note with it: single dose of 10 µM.
Excerpt: as §1

The target of data set [9] is T9, JNK2 (Homo sapiens, UniProt P45984).
T9 construct: purchased Reaction Biology Corp
T9 sequence (P45984 whole entry): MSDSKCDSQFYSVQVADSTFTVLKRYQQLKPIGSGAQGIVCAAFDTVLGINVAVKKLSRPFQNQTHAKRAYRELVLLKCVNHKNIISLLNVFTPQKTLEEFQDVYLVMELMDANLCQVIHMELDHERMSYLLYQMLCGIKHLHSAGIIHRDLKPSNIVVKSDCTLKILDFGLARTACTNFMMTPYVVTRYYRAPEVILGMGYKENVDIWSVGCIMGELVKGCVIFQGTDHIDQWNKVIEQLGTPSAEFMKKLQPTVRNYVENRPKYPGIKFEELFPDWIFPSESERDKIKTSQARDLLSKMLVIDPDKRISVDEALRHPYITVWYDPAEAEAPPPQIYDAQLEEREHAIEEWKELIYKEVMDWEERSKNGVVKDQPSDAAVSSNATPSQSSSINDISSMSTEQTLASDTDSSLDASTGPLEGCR
Nature of the data set: In vitro kinase screening (Kinase HotSpot). The data set is classed as biochemical.
Excerpt: as §1

Data set [10] deals with T10, MEK1 (Homo sapiens, UniProt Q02750).
T10 construct: purchased Reaction Biology Corp
T10 sequence (Q02750 whole entry): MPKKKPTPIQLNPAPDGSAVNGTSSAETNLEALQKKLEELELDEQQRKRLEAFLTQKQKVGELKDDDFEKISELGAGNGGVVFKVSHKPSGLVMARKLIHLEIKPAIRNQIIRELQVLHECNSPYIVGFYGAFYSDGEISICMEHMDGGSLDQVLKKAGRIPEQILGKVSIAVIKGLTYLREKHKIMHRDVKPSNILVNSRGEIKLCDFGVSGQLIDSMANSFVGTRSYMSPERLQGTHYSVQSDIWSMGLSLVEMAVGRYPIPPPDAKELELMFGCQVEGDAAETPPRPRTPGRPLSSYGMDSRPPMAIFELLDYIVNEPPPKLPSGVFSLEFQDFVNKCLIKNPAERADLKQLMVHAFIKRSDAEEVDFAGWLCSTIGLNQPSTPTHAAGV
Nature of the data set: In vitro kinase screening (Kinase HotSpot). Type of data set: biochemical. The note with it: single dose of 10 µM.
Excerpt: as §1

In data set [11] the target is T11, MEK2 (Homo sapiens, UniProt P36507).
T11 construct: purchased Reaction Biology Corp
T11 sequence (P36507 whole entry): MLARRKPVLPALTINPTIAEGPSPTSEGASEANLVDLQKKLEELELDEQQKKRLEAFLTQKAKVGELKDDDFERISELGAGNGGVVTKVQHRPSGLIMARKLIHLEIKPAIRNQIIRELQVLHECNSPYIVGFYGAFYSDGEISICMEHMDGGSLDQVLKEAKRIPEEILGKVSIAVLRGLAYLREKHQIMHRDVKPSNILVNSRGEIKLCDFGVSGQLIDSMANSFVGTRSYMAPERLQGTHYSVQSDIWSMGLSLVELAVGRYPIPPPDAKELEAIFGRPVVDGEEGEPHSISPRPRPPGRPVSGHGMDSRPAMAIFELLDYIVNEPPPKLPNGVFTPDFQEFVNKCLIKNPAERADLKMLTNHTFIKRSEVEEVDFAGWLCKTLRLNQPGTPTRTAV
Nature of the data set: In vitro kinase screening (Kinase HotSpot). The data set is classed as biochemical. The settings on record: single dose of 10 µM.
Excerpt: as §1

The target of data set [12] is T12, ABL1 (T315I) (Homo sapiens, UniProt P00519, T315I).
T12 construct: purchased Reaction Biology Corp
Nature of the data set: In vitro kinase screening (Kinase HotSpot). The note with it: single dose of 10 µM. Type of data set: biochemical.
Excerpt: as §1

The nature of data set [13]: In vivo pharmacokinetic assay. The settings on record: SD rats, 10 mg/kg, mean, N = 3. As for the experimental part: Serum samples were collected each 30 min. The blood concentration of the test compounds was determined by LC-MS/MS (Agilent 1290 infinity II series equipped with on-line degasser, binary pump, thermostatted well-plate autosampler and column compartment, Waters Atlantis® HSS T3 (2.1 × 100 mm, 1.9 µm) column, and mobile phase linear gradient from 95% A (0.1% formic acid in water) /5% B (0.1% formic acid in acetonitrile) to 5% A/95% B, 6500+ QTRAP LC-MS/MS/MS system, Turbo Spray Ion Drive as ion source, and Carbamazepine as internal standard. Pharmacokinetic parameters were obtained by non-compartmental analysis of the plasma concentration–time profiles using KineticaTM 4.4.1 (Thermo Fisher Scientific, Inc., Woburn, MA, USA).

Values joined by “and” are separate entries in the source; they are usually repeats but may differ in a detail not shown here. Equal values may be shown once.

T1 sequence (Q12809 whole entry): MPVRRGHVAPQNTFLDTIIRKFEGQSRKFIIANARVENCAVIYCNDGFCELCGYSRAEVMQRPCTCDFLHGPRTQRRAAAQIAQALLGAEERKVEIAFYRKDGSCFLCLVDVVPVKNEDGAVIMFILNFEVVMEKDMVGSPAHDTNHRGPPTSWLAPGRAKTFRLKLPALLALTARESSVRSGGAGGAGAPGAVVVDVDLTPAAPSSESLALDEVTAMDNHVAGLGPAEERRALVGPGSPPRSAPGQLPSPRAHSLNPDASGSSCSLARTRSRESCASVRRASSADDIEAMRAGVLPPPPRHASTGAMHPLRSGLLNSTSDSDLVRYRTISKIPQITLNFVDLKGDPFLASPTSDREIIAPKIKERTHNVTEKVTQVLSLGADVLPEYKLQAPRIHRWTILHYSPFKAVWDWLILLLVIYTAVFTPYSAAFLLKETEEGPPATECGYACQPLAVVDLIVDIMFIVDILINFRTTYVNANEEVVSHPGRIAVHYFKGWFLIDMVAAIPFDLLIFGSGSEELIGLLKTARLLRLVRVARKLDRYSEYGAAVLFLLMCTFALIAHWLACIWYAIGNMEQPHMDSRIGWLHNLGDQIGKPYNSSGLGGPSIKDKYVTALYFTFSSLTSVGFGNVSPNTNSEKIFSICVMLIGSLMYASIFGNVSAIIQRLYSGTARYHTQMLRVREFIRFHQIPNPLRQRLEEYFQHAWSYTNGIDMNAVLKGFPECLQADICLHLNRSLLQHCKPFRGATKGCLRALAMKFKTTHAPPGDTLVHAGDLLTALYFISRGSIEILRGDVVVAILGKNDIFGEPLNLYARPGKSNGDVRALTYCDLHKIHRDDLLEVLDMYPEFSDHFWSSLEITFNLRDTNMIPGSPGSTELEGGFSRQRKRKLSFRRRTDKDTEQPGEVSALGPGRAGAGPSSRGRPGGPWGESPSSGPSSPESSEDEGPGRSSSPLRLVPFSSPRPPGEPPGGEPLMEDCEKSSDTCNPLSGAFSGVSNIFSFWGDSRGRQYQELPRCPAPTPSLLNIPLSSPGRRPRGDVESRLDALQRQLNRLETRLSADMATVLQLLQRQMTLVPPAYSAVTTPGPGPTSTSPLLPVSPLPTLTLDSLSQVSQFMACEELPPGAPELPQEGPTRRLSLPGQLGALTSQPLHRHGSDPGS
T2 sequence (P28482 whole entry): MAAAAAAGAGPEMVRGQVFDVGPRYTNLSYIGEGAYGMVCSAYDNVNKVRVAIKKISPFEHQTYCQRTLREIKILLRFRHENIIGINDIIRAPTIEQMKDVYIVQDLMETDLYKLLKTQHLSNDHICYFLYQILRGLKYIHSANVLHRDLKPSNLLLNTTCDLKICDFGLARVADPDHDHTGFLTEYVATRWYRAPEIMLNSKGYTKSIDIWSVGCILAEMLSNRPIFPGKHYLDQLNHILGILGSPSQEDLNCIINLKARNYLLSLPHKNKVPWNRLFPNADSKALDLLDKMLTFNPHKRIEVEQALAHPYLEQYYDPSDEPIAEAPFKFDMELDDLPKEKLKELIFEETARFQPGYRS

The IC50 is the concentration that inhibits the measured activity by half. One may read the Cmax as the peak of the concentration-time curve. What is called Tmax is the time from dosing to the highest level. As for `O=S(=O)(NCCCNc1cc(-c2cn(-c3ccccc3)nc2-c2cccc(O)c2)ccn1)c1ccc(Cl)cc1` [Compound 2l, 4-Chloro-N-(3-((4-(3-(3-hydroxyphenyl)-1-phenyl-1H-pyrazol-4-yl)pyridin-2-yl)amino)propyl) benzenesulfonamide], the IC50 in data set [1] was 8280 nM; in data set [7] (MAPK14), 1130 ± 90 nM; in data set [9], 360 ± 70 nM. Besides, the Inhibition % in data set [2] is recorded as 22.21 ± 0.41%; in [3], −2.94 ± 0.17%; in [4] it was 24.24 ± 1.14%; in [5] it was 10.05 ± 0.10%; in [6] it was 11.74 ± 4.78%; in data set [7] (single dose of 10 µM, P38a/MAPK14), 86.54 ± 0.61%. The Inhibition % was 89.50 ± 0.03% in data set [8]; 98.47% and 98.49 ± 0.02% in data set [9] (single dose of 10 µM, 10 µM); 0.56 ± 1.08% in data set [10]; 11.73 ± 1.60% in data set [11]; “–10.98 ± 0.40%” in data set [12]. Moreover, the AUCinf stood at 1478.2 ng·h/mL in [13] (IV) and 142.1 ng·h/mL in [13] (PO). For the same compound, the AUClast in [13] (IV) was 1471.6 ng·h/mL; in [13] (PO), 136.0 ng·h/mL. Further, the CL in [13] (IV) was 113 mL/min/kg. In addition, the t1/2 in [13] (IV) turned out to be 5.8 h; in data set [13] (PO), 6.1 h. In addition, the highest concentration (Cmax) in data set [13] (PO) was 36.6 ng/mL. The “F (oral bioavailability)” value in data set [13] (PO) is on record as 9.2%. For the same compound, the time of peak concentration (Tmax) in data set [13] (PO) was determined as 0.5 h.
